From a polymer gas permeability compilation come the findings set out here.

Structures are written as SMILES.

Turning to `*Oc1c(Br)cc(C2(c3cc(Br)c(OC(=O)c4cccc(C(*)=O)c4)c(Br)c3)OC(=O)c3ccccc32)cc1Br` (repeat unit), the CH4 permeability is 0.206 Barrer, the CO2 permeability was 8.34 Barrer, the H2 permeability turned out to be 27.1 Barrer and the N2 permeability stood at 0.282 Barrer. The O2 permeability amounted to 1.96 Barrer.
In the case of `*/C=C/c1ccc(*)cc1[Si](C)(C)C(C)(C)C` (repeat unit), the CO2 permeability was determined as 26 Barrer, the N2 permeability turned out to be 1.5 Barrer and the O2 permeability was 6.5 Barrer.
Consider `*O[Si](*)(C)c1ccccc1` (repeat unit), for which the CH4 permeability came to 36 Barrer, the CO2 permeability was 239 Barrer, the N2 permeability is 8.59 Barrer and the O2 permeability was found to be 28.8 Barrer.
In the same order, the values of `*Oc1ccc(Oc2ccc(C(=O)c3ccc(*)cc3)cc2)cc1` (repeat unit) are 0.0311 Barrer, 0.963 Barrer, 0.0398 Barrer and 0.259 Barrer.
Molecule `*C(=C(*)c1ccc(C(C)(C)C)cc1)c1ccc(O)cc1` (repeat unit) gave a CH4 permeability of 46 Barrer, a CO2 permeability of 530 Barrer, an H2 permeability of 340 Barrer and an N2 permeability of 23 Barrer. Also, the O2 permeability came to 82 Barrer.
Regarding `*c1c(C)cc(C)c(N2C(=O)c3ccc(Sc4ccc5c(c4)C(=O)N(*)C5=O)cc3C2=O)c1C` (repeat unit), the H2 permeability came to 68.6 Barrer, the N2 permeability is 1.62 Barrer and the O2 permeability is 8.2 Barrer.
Consider `*Oc1cc2c(cc1O*)C1(CC2(C)C)CC(C)(C)c2cc3c(cc21)Oc1cc2nc4cc5c(cc4nc2cc1O3)C(C)(C)CC51CC(C)(C)c2cc3nc4cc(*)c(*)cc4nc3cc21` (repeat unit), for which the CH4 permeability is 62 Barrer, the CO2 permeability was 1100 Barrer, the H2 permeability worked out at 860 Barrer and the N2 permeability stood at 42 Barrer. In addition, the O2 permeability was found to be 190 Barrer.
With `*c1ccc(Cc2ccc(N3C(=O)c4ccc(C(=O)Oc5ccc(C(c6ccc(OC(=O)c7ccc8c(c7)C(=O)N(*)C8=O)cc6)(C(F)(F)F)C(F)(F)F)cc5)cc4C3=O)cc2)cc1` (repeat unit), the H2 permeability came to 11.8 Barrer, the N2 permeability came out at 0.164 Barrer and the O2 permeability came to 0.917 Barrer.
As for `*NC(=O)c1ccc(C(c2ccc(C(=O)Nc3c(C)cc4c(c3C)C3c5ccccc5C4c4cc(C)c(*)c(C)c43)cc2)(C(F)(F)F)C(F)(F)F)cc1` (repeat unit), the CO2 permeability turned out to be 121 Barrer, the H2 permeability amounted to 212 Barrer, the N2 permeability was 5.8 Barrer and the O2 permeability was determined as 27.5 Barrer.
For the molecule `*Oc1cc(C)c(C2(c3cc(C(C)C)c(Oc4ccc(S(=O)(=O)c5ccc(*)cc5)cc4)cc3C)OC(=O)c3ccccc32)cc1C(C)C` (repeat unit), the CH4 permeability came to 0.928 Barrer, the CO2 permeability was determined as 19.4 Barrer, the H2 permeability was 30.6 Barrer and the N2 permeability was found to be 0.699 Barrer. The same molecule yielded an O2 permeability of 4.85 Barrer.
Turning to `*Nc1ccc(Oc2c(F)c(F)c(Oc3ccc(NC(=O)CN4C(=O)c5ccc(C(*)=O)cc5C4=O)cc3)c(F)c2F)cc1` (repeat unit), the CH4 permeability was determined as 0.013 Barrer, the CO2 permeability came to 1.27 Barrer, the N2 permeability is 0.071 Barrer and the O2 permeability came to 0.284 Barrer.
In turn, `*c1cccc(N2C(=O)c3ccc(Oc4ccc5c(c4)C(=O)N(*)C5=O)cc3C2=O)c1` (repeat unit) showed a CH4 permeability of 0.0064 Barrer, a CO2 permeability of 0.301 Barrer, an N2 permeability of 0.012 Barrer and an O2 permeability of 0.081 Barrer.
Take `*C(=C(*)c1cccc(O[Si](C)(C)C(C)(C)C)c1)c1ccc(C(C)(C)C)cc1` (repeat unit): the CH4 permeability worked out at 3300 Barrer, the CO2 permeability was 7200 Barrer, the H2 permeability amounted to 3900 Barrer and the N2 permeability was 1300 Barrer. The O2 permeability stood at 2100 Barrer.
The matching figures for `*C(=C(*)c1ccc2c(c1)C(C)(C)CC2(C)C)c1ccc(C)cc1` (repeat unit): 10100 Barrer, 16900 Barrer, 10800 Barrer, 4100 Barrer and 5700 Barrer.
Take `*c1c(C)cc(Cc2cc(C)c(-n3c(=O)c4cc5c(=O)n(*)c(=O)c5cc4c3=O)c(C)c2)cc1C` (repeat unit): the CH4 permeability came to 8.21 Barrer, the CO2 permeability amounted to 97.6 Barrer, the N2 permeability amounted to 7.08 Barrer and the O2 permeability amounted to 27.4 Barrer.
The matching figures for `*c1ccc(C2(c3ccc(*)cc3)c3ccccc3-c3ccccc32)cc1` (repeat unit): 0.84 Barrer, 35.6 Barrer, 1.36 Barrer and 6.8 Barrer.
In the same order, the values of `*Oc1ccc(C(C)(c2ccccc2)c2ccc(Oc3ccc(S(=O)(=O)c4ccc(*)cc4)cc3)cc2)cc1` (repeat unit) are 0.32 Barrer, 8.12 Barrer, 0.278 Barrer and 1.56 Barrer.
`*c1ccc(Oc2ccc(C3(c4ccc(Oc5ccc(N6C(=O)c7ccc(C(c8ccc9c(c8)C(=O)N(*)C9=O)(C(F)(F)F)C(F)(F)F)cc7C6=O)cc5)cc4)c4ccccc4-c4ccccc43)cc2)cc1` (repeat unit): the CH4 permeability stood at 0.69 Barrer, the CO2 permeability came out at 19.9 Barrer, the H2 permeability was determined as 61.3 Barrer and the N2 permeability was found to be 1.26 Barrer. This molecule gave an O2 permeability of 4.88 Barrer.
On to `*c1ccc(N(c2ccccc2)c2ccc(N3C(=O)c4ccc(C(c5ccc6c(c5)C(=O)N(*)C6=O)(C(F)(F)F)C(F)(F)F)cc4C3=O)cc2)cc1` (repeat unit), for which the CH4 permeability came to 0.08 Barrer, the CO2 permeability is 4.73 Barrer, the N2 permeability was 0.08 Barrer and the O2 permeability turned out to be 0.69 Barrer.
Molecule `*Oc1ccc(Oc2ccc(C(=O)c3ccc(*)cc3)cc2)cc1C(C)(C)C` (repeat unit) registered a CH4 permeability of 0.221 Barrer, a CO2 permeability of 4.65 Barrer, an N2 permeability of 0.217 Barrer and an O2 permeability of 1.39 Barrer.
`*CC(*)OC(=O)c1ccc(C)cc1` (repeat unit) displayed a CH4 permeability of 0.417 Barrer, a CO2 permeability of 6.73 Barrer, an N2 permeability of 0.339 Barrer and an O2 permeability of 1.72 Barrer.
Regarding `*Oc1c(C)cc(-c2cc(C)c(Oc3ccc(S(=O)(=O)c4ccc(*)cc4)cc3)c(C)c2)cc1C` (repeat unit), the CH4 permeability was determined as 0.925 Barrer, the CO2 permeability was determined as 18.6 Barrer, the H2 permeability was 11.1 Barrer and the N2 permeability was found to be 0.91 Barrer. Further, the O2 permeability was 4.55 Barrer.
In turn, `*CC(*)c1ccc(O)cc1` (repeat unit) had an N2 permeability of 0.015 Barrer and an O2 permeability of 0.12 Barrer.
Consider `*C(=C(*)c1ccc([Si](C(C)C)(C(C)C)C(C)C)cc1)c1ccccc1` (repeat unit), for which the CH4 permeability worked out at 315 Barrer, the CO2 permeability was 1300 Barrer, the H2 permeability was 635 Barrer and the N2 permeability turned out to be 130 Barrer. Further, the O2 permeability is 290 Barrer.
Take `*C(C(=O)OC(C)C)C(*)C(=O)OC1CCCCC1` (repeat unit): the H2 permeability was determined as 41 Barrer, the N2 permeability worked out at 3 Barrer and the O2 permeability is 8 Barrer.
Molecule `*C(=C(*)c1ccc2c(c1)CCC2)c1ccc([Si](C)(C)C)cc1` (repeat unit) gave a CH4 permeability of 470 Barrer, a CO2 permeability of 2000 Barrer, an H2 permeability of 1100 Barrer and an N2 permeability of 170 Barrer. The molecule further came in with an O2 permeability of 450 Barrer.
`*CCC[Si](*)(C)C` (repeat unit) displayed a CH4 permeability of 8.4 Barrer, an N2 permeability of 3 Barrer and an O2 permeability of 9.5 Barrer.
Molecule `*C1C2CC(CF)C(C2)C1*` (repeat unit) returned a CH4 permeability of 13 Barrer, a CO2 permeability of 200 Barrer, an H2 permeability of 166 Barrer and an N2 permeability of 17 Barrer. The molecule further displayed an O2 permeability of 50 Barrer.
In turn, `*Oc1ccc(C(C)(C)c2ccc(Oc3ccc(C(=O)c4ccc(*)cc4)cc3)cc2)cc1` (repeat unit) showed a CH4 permeability of 0.18 Barrer, a CO2 permeability of 3.5 Barrer, an H2 permeability of 11 Barrer and an N2 permeability of 0.16 Barrer. The molecule further displayed an O2 permeability of 1 Barrer.
The molecule `*C(=C(*)c1ccc(S(=O)(=O)O)cc1)c1ccc(C(C)(C)C)cc1` (repeat unit) displayed a CO2 permeability of 340 Barrer, an N2 permeability of 11 Barrer and an O2 permeability of 45 Barrer.
As for `*Oc1ccc(S(=O)(=O)c2ccc(Oc3ccc(-c4ccc(*)cc4)cc3)cc2)cc1` (repeat unit), the CH4 permeability was 0.255 Barrer, the CO2 permeability was found to be 5.6 Barrer, the N2 permeability was 0.236 Barrer and the O2 permeability amounted to 1.3 Barrer.
Molecule `*c1ccc(C(c2ccc(-c3nnc(*)n3-c3ccc(O)cc3)cc2)(C(F)(F)F)C(F)(F)F)cc1` (repeat unit) gave a CH4 permeability of 6.69 Barrer, a CO2 permeability of 268 Barrer and an N2 permeability of 10.2 Barrer.
In turn, `*c1ccc(C(c2ccc(-n3c(=O)c4cc5c(=O)n(*)c(=O)c5cc4c3=O)cc2)(C(F)(F)F)C(F)(F)F)cc1` (repeat unit) came in with a CH4 permeability of 0.78 Barrer, a CO2 permeability of 27.7 Barrer, an H2 permeability of 59.1 Barrer and an N2 permeability of 1.39 Barrer. The O2 permeability turned out to be 7.1 Barrer.
The matching figures for `*C(=C(*)c1cccc(O[Si](C)(C)C(C)(C)C)c1)c1ccc([Si](C)(C)C)cc1` (repeat unit): 1100 Barrer, 2900 Barrer, 1600 Barrer, 430 Barrer and 810 Barrer.
As to `*Oc1cc2c(cc1O*)C1(CC2(C)C)CC(C)(C)c2cc3c(cc21)Oc1c(C#N)c(*)c(*)c(C#N)c1O3` (repeat unit), the CH4 permeability worked out at 298 Barrer, the CO2 permeability amounted to 5090 Barrer, the H2 permeability worked out at 2280 Barrer and the N2 permeability was 256 Barrer. This molecule came in with an O2 permeability of 913 Barrer.
